Results taken from US20110064694A1, “ANTI-HEPATITIS C ACTIVITY OF MESO-TETRAKIS-PORPHYRIN ANALOGUES” (YALE UNIVERSITY, priority 2009, published 2011).
Where two headings read alike, the source gives them in different places.

What was measured:
HIV-1 IIIB = assay: Anti-HIV activity in MT-2 cells, MTT quantitation of viral CPE; type: cell-based; details: MT-2 cells, 5 days; read-out: Antiviral Activity EC50 HIV-1 IIIB
Protocol: Determination of antiviral activities. Ff-luciferase reporter activity was used to monitor the replication of HCV replicons in Huhluc/neo-ET cells free from G418. Replicon cells were seeded at the density of 5×10^3 cells per well in 96-well plates. The following day, replicon cells were incubated in duplicates with DMSO or serially diluted tetraphenylporphyrin (TPP) analogues at 37″C. 72 hrs after co-incubation, cells were lysed with ice-cold passive lysis reagent after PBS wash, and the luciferase activity was measured with the luciferase assay kit (Promega) and Tecan FARCyte luminometer (GE Healthcare) following the manufacturers' descriptions. The relative light units (RLU) were adjusted as percentage readings of the compound-free controls and the 50% effective concentration (EC50) was determined from dose-effect curve by nonlinear regression analysis using Origin 6.1 (OriginLab Software). TPP analogues were also screened in vitro against HIV-I IIIB and HBV as previously described (26,41). Briefly 1×10^3 MT-2 cells per well were exposed in triplets to 0.1TC1D50/cell (50% of the tissue culture infectious dose) of HIV-1 IIIB and cultured in the presence of compounds. The EC50 values were estimated by MTT-based colorimetric quantitation of viral CPE after 5 days. Anti-HBV activities were evaluated in 2.2.15 cells by means of Southern DNA hybridization.

[1] = system: mitochondrial DNA content of CEM cells; assay: Mitochondrial DNA toxicity, slot blot of CEM cell lysates; type: cell-based
Protocol: Quantitation of mitochondrial DNA content was performed as previously published (18). Briefly, CEM cell lysates were spotted onto Hybond paper using the Miliford II slot blot apparatus (Schleicher & Schuell). MTDNA was detected with mtDNA-specific probe and then reprobed with Alu probe for internal control. The autoradiographic bands were quantified on scanning densitometer (Molecular Dynamics).

[2] = system: HCV genotype 1b (Con1) replicon cells Huh-luc/neo-ET
Protocol: Reversibility of the action of compound 6 against genotype 1b HCV replicon. Huh-luc/neo-ET cells were seeded at a density of 2×10^5 cells per well in a 6-well plate, and were incubated for 12 days with DMSO control or up to 1 μM of compound 6 in the absence of G418. Cells were split every three days when media and compounds were replenished, and samples were collected for RNA quantification. compound 6 was removed on Day 12 when cells were split and cultured in the presence of 250 μg/ml of G418. Replicon cells were continuously monitored for another 12 days, during which cells were split and sampled whenever reaching confluence. Cell viability was measured by CellTiter-Glo luminescent cell viability assay following manufacturer's procedures (Promega), and the HCV RNA was quantitated by qRT-PCR and normalized as described above.
The goal of anti-HCV treatment is to completely eliminate the virus from infected cells. In order to assess the reversibility of the antiviral action and the possibility of replicon clearance, we incubated Huhluc/neo-ET cells with increasing concentrations of compound 6 for […] free from G418 (FIG. 4). On Day 12 compound 6 was removed and 250 μgml G418 was reintroduced while the replicon RNA level and cell growth were monitored for another 12 days.

[3] = system: mitochondrial potential of Huh-luc/neo-ET cells; details: up to 1 M for 9 days, compared with mock-treated control
Protocol: We treated Huh-luc/neo-ET cells with up to 1 µM of compound 6 for 9 days, during which the media were replenished every 3 days and the cells were passaged once. Live cells were stained with the ratiometric indicator JC-1 (Invitrogen) in order to measure the mitochondrial potential using confocal microscopy.

cytochrome c = cytochrome c (Equus caballus, UniProt P00004); details: read-out: Kd, binding to cyt c; cited from earlier work
Sequence of cytochrome c (P00004 2-105 limits assumed): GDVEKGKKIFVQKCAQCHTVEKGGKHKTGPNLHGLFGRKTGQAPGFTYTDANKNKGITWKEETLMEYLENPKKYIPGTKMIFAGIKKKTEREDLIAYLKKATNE

CEM cells = assay: Cytotoxicity in CEM cells; details: read-out: Cytotoxicity CC50 CEM

**Q.** Which EC50 (HIV-1 IIIB) does the source give for O=C(O)c1cc(C(=O)O)cc(-c2ccc(-c3c4nc(c(-c5ccc(-c6cc(C(=O)O)cc(C(=O)O)c6)cc5)c5ccc([nH]5)c(-c5ccc(-c6cc(C(=O)O)cc(C(=O)O)c6)cc5)c5nc(c(-c6ccc(-c7cc(C(=O)O)cc(C(=O)O)c7)cc6)c6ccc3[nH]6)C=C5)C=C4)cc2)c1 [Compound 6, Meso-teftakis-(3,5-dicarboxy-4,4′-biphenyl)porphyrin] here?
**A.** The EC50 was 3.67 ± 1.22 µM.

**Q.** What about the “effect on amount of mitochondrial DNAs” value [1] of the same molecule?
**A.** The value was “did not alter the amount of mitochondrial DNAs”.

**Q.** And the IC50 ([1]; CEM cells, read-out: Mitochondrial DNA Toxicity IC50 CEM)?
**A.** The IC50 was greater than 50 µM.

**Q.** And the “cells surviving under G418” value ([2]; 50 nM for 12 days, 6 days after the removal of inhibitor)?
**A.** Its value is 8.5%.

**Q.** What about the replicon-positive cells rebounded ([2]; 50 nM for 12 days, 12 days after removal of inhibitor) of the same molecule?
**A.** Its replicon-positive cells rebounded is 13.1%.

**Q.** And the “cells surviving under G418” value ([2]; 100 nM for 12 days, end of the experiment)?
**A.** The value was 0.007%.

**Q.** And the “cell viability after G418 reintroduction” value ([2]; 300 nM and 1 μM for 12 days, 9 days after coincubation with G418)?
**A.** Its value is “no longer viable”.

**Q.** What about the “reduction in the HCV RNA levels” value ([2]; 300 nM and above, after 12 days of exposure) of the same molecule?
**A.** The value was “approximately 4.5 1o916”.

**Q.** What about the “cells surviving under G418” value ([2]; 300 nM for 9 days, 15-day rebound period with G418) of the same molecule?
**A.** The value was 0.4%.

**Q.** What about the replicon clearance ([2]; 1 μM for 9 days, 15-day rebound period with G418) of the same molecule?
**A.** The replicon clearance was “achieved complete “cure””.

**Q.** What about the “toxicity in cells during the 12-day treatment” value ([2]; up to 1 μM, 12 days) of the same molecule?
**A.** Its value is “did not cause significant toxicity”.

**Q.** And the “effect on mitochondrial potential” value [3]?
**A.** The value was “did not affect the mitochondrial potential”.

**Q.** What about the Kd (cytochrome c) of the same molecule?
**A.** The Kd was 1.5 ± 0.17 µM.

**Q.** And the CC50 (CEM cells)?
**A.** Its CC50 is greater than 50 µM.
